Data: patent publication US11427553B2, “Dihydrooxadiazinones” (Bayer Aktiengesellschaft, priority 2017, dated 2022)

test system: HeLa cells; experiment: Assay 1 cell proliferation measurement (CTG, 72 h), HeLa; format: cell-based, human; conditions: Homo sapiens, HeLa; Assay 1, 72 h, Cell Titer Glo; read-out: HeLa IC50 [nM] (Cervical cancer)
Method: Cell Proliferation Measurement
The antiproliferative activity of the compounds of the general formula (I) was examined in vitro in human cancer cells. For this purpose, the appropriate number of cells (Hela: 800; SK-MEL-3: 1000; A549: 800) were plated in 384-well plates with appropriate growth medium ((A549: DMEM/Ham's F12 (Biochrom; #FG 4815 with stabile Glutamine), FCS 10% final (Biochrom; #S 0415); Hela: DMEM/Ham's F12 (Biochrom; #FG 4815 with stabile Glutamine), FCS 10% final (Biochrom; #S 0415); SK-MEL-3: McCoy's 5A (Biochrom; #F 1015), FCS 10% final (Biochrom; #S 0415), L-Alanyl-L-Glutamine final: 2 mM, (Biochrom; #K 0302)) and incubated at 37° C. overnight. After 24 h, cells on one plate (0 h plate) were treated with 30 μl/cavity of CTG solution (Promega Cell Titer Glo (catalogue #G755B and G756B)) and incubated at room temperature for 10 min, and luminescence was measured by means of a VICTOR V (Perkin Elmer), in order to determine cell viability on commencement of treatment. The cells on the test plate were treated with the compounds of the general formula (I) as and incubated at 37° C. for 72 h. The compounds were added to the cells by means of an HP D300 digital dispenser in a 10-step 2.5-fold dilution series generally starting at a maximum final drug concentration of 100 nM. As control, the cells were treated with vehicle (DMSO at 0.3% final concentration). After 72 h, the cells were treated with 30 μl/cavity of CTG solution (Promega Cell Titer Glo (catalogue #G755B and G756B)) and incubated at room temperature for 10 min. and luminescence was measured by means of a VICTOR V (Perkin Elmer), in order to determine cell viability at the end of treatment. The percentage effect on cell growth and the IC50 derived therefrom were determined for each test substance using the values from the 0 h plate […] and the DMSO control […]. The IC50 values were calculated using a 4-parameter fit.

IC50 [nM]	Structure (SMILES)
59	O=C1NN=C(c2ccc(NC(C3CC3)C3CC3)c(C(F)(F)F)c2)CO1 [Example 296, 5-{4-[(dicyclopropylmethyl)amino]-3-(trifluoromethyl)phenyl}-3,6-dihydro-2H-1,3,4-oxadiazin-2-one]
23	NC(=O)C1CN(c2ccc(C3=NNC(=O)OC3)cc2C(F)(F)F)C1 [Example 287, 1-[4-(2-oxo-3,6-dihydro-2H-1,3,4-oxadiazin-5-yl)-2-(trifluoromethyl)phenyl]azetidine-3-carboxamide]
43	C[C@@H](O)[C@@H](CO)Nc1ccc(C2=NNC(=O)OC2)cc1C(F)(F)F [Example 292, 5-[4-{[(2R,3R)-1,3-dihydroxybutan-2-yl]amino}-3-(trifluoromethyl)phenyl]-3,6-dihydro-2H-1,3,4-oxadiazin-2-one]
14	O=C1NN=C(c2ccc(N3CCC4(CCOC4)C3)c(C(F)(F)F)c2)CO1 (centres unmarked) [Example 284, 5-[4-(2-oxa-7-azaspiro[4.4]nonan-7-yl)-3-(trifluoromethyl)phenyl]-3,6-dihydro-2H-1,3,4-oxadiazin-2-one]
> 100	CN1CC(CNc2ccc(C3=NNC(=O)OC3)cc2C(F)(F)F)CC1=O (centres unmarked) [Example 305, 5-[4-{[(1-methyl-5-oxopyrrolidin-3-yl)methyl]amino}-3-(trifluoromethyl)phenyl]-3,6-dihydro-2H-1,3,4-oxadiazin-2-one]
47	Cn1ccnc1CNc1ccc(C2=NNC(=O)OC2)cc1C(F)(F)F [Example 295, 5-[4-{[(1-methyl-1H-imidazol-2-yl)methyl]amino}-3-(trifluoromethyl)phenyl]-3,6-dihydro-2H-1,3,4-oxadiazin-2-one]
> 100	CN1CCCC(Nc2ccc(C3=NNC(=O)OC3)cc2C(F)(F)F)CC1 (centres unmarked) [Example 301, 5-{4-[(1-methylazepan-4-yl)amino]-3-(trifluoromethyl)phenyl}-3,6-dihydro-2H-1,3,4-oxadiazin-2-one]
> 100	O=C1NN=C(c2ccc(NCCCn3cnnc3)c(C(F)(F)F)c2)CO1 [Example 312, 5-[4-{[3-(4H-1,2,4-triazol-4-yl)propyl]amino}-3-(trifluoromethyl)phenyl]-3,6-dihydro-2H-1,3,4-oxadiazin-2-one]
45	O=C1NN=C(c2ccc(NCC3CCOCC3)c(C(F)(F)F)c2)CO1 [Example 294, 5-[4-{[(oxan-4-yl)methyl]amino}-3-(trifluoromethyl)phenyl]-3,6-dihydro-2H-1,3,4-oxadiazin-2-one]
> 100	CCN(CCC#N)c1ccc(C2=NNC(=O)OC2)cc1C(F)(F)F [Example 314, 3-{ethyl[4-(2-oxo-3,6-dihydro-2H-1,3,4-oxadiazin-5-yl)-2-(trifluoromethyl)phenyl]amino}propanenitrile]
> 100	CC1CC(Nc2ccc(C3=NNC(=O)OC3)cc2C(F)(F)F)CCN1 (centres unmarked) [Example 311, 5-{4-[(2-methylpiperidin-4-yl)amino]-3-(trifluoromethyl)phenyl}-3,6-dihydro-2H-1,3,4-oxadiazin-2-one]
13	O=C1NN=C(c2ccc(NCCCn3ccnc3)c(C(F)(F)F)c2)CO1 [Example 282, 5-[4-{[3-(1H-imidazol-1-yl)propyl]amino}-3-(trifluoromethyl)phenyl]-3,6-dihydro-2H-1,3,4-oxadiazin-2-one]
> 100	CNC(=O)C1CCCN1c1ccc(C2=NNC(=O)OC2)cc1C(F)(F)F (centres unmarked) [Example 304, N-methyl-1-[4-(2-oxo-3,6-dihydro-2H-1,3,4-oxadiazin-5-yl)-2-(trifluoromethyl)phenyl]prolinamide]
> 100	O=C1NN=C(c2ccc(NCCN3CCCCC3)c(C(F)(F)F)c2)CO1 [Example 317, 5-[4-{[2-(piperidin-1-yl)ethyl]amino}-3-(trifluoromethyl)phenyl]-3,6-dihydro-2H-1,3,4-oxadiazin-2-one]
> 100	CC1CN(C)CCN(c2ccc(C3=NNC(=O)OC3)cc2C(F)(F)F)C1 (centres unmarked) [Example 302, 5-[4-(4,6-dimethyl-1,4-diazepan-1-yl)-3-(trifluoromethyl)phenyl]-3,6-dihydro-2H-1,3,4-oxadiazin-2-one]
> 100	CN1CCC(Nc2ccc(C3=NNC(=O)OC3)cc2C(F)(F)F)CC1 [Example 309, 5-{4-[(1-methylpiperidin-4-yl)amino]-3-(trifluoromethyl)phenyl}-3,6-dihydro-2H-1,3,4-oxadiazin-2-one]

IC50 [nM]	Structure (SMILES)
26	O=C1NN=C(c2ccc(NCc3cccnc3)c(C(F)(F)F)c2)CO1 [Example 288, 5-[4-{[(pyridin-3-yl)methyl]amino}-3-(trifluoromethyl)phenyl]-3,6-dihydro-2H-1,3,4-oxadiazin-2-one]
90	Cn1cc(CNc2ccc(C3=NNC(=O)OC3)cc2C(F)(F)F)cn1 [Example 300, 5-[4-{[(1-methyl-1H-pyrazol-4-yl)methyl]amino}-3-(trifluoromethyl)phenyl]-3,6-dihydro-2H-1,3,4-oxadiazin-2-one]
23	Cn1ccc(CNc2ccc(C3=NNC(=O)OC3)cc2C(F)(F)F)n1 [Example 286, 5-[4-{[(1-methyl-1H-pyrazol-3-yl)methyl]amino}-3-(trifluoromethyl)phenyl]-3,6-dihydro-2H-1,3,4-oxadiazin-2-one]
> 100	CCNC(=O)CNc1ccc(C2=NNC(=O)OC2)cc1C(F)(F)F [Example 306, ethyl-N^2-[4-(2-oxo-3,6-dihydro-2H-1,3,4-oxadiazin-5-yl)-2-(trifluoromethyl)phenyl]glycinamide]
43	CC(C)C[C@H](CO)Nc1ccc(C2=NNC(=O)OC2)cc1C(F)(F)F [Example 293, 5-[4-{[(2R)-1-hydroxy-4-methylpentan-2-yl]amino}-3-(trifluoromethyl)phenyl]-3,6-dihydro-2H-1,3,4-oxadiazin-2-one]
> 100	CN(C)C(=O)CNc1ccc(C2=NNC(=O)OC2)cc1C(F)(F)F [Example 307, N,N-dimethyl-N^2-[4-(2-oxo-3,6-dihydro-2H-1,3,4-oxadiazin-5-yl)-2-(trifluoromethyl)phenyl]glycinamide]
69	O=C1NN=C(c2ccc(NCc3cncnc3)c(C(F)(F)F)c2)CO1 [Example 299, 5-[4-{[(pyrimidin-5-yl)methyl]amino}-3-(trifluoromethyl)phenyl]-3,6-dihydro-2H-1,3,4-oxadiazin-2-one]
> 100	CNC(=O)CCNc1ccc(C2=NNC(=O)OC2)cc1C(F)(F)F [Example 303, N-methyl-N^3-[4-(2-oxo-3,6-dihydro-2H-1,3,4-oxadiazin-5-yl)-2-(trifluoromethyl)phenyl]-beta-alaninamide]
> 100	O=C1NN=C(c2ccc(NCCN3CCNC3=O)c(C(F)(F)F)c2)CO1 [Example 313, 5-[4-{[2-(2-oxoimidazolidin-1-yl)ethyl]amino}-3-(trifluoromethyl)phenyl]-3,6-dihydro-2H-1,3,4-oxadiazin-2-one]
59	O=C1NN=C(c2ccc(NCCn3ccnn3)c(C(F)(F)F)c2)CO1 [Example 297, 5-[4-{[2-(1H-1,2,3-triazol-1-yl)ethyl]amino}-3-(trifluoromethyl)phenyl]-3,6-dihydro-2H-1,3,4-oxadiazin-2-one]
> 100	CCN1CCCC1CNc1ccc(C2=NNC(=O)OC2)cc1C(F)(F)F (centres unmarked) [Example 315, 5-[4-{[(1-ethylpyrrolidin-2-yl)methyl]amino}-3-(trifluoromethyl)phenyl]-3,6-dihydro-2H-1,3,4-oxadiazin-2-one]
> 100	CN1CCCC1CCNc1ccc(C2=NNC(=O)OC2)cc1C(F)(F)F (centres unmarked) [Example 318, 5-[4-{[2-(1-methylpyrrolidin-2-yl)ethyl]amino}-3-(trifluoromethyl)phenyl]-3,6-dihydro-2H-1,3,4-oxadiazin-2-one]
62	CC1(CNc2ccc(C3=NNC(=O)OC3)cc2C(F)(F)F)CCOCC1 [Example 298, 5-[4-{[(4-methyloxan-4-yl)methyl]amino}-3-(trifluoromethyl)phenyl]-3,6-dihydro-2H-1,3,4-oxadiazin-2-one]
32	O=C1CCC(CNc2ccc(C3=NNC(=O)OC3)cc2C(F)(F)F)N1 (centres unmarked) [Example 290, 5-[4-{[(5-oxopyrrolidin-2-yl)methyl]amino}-3-(trifluoromethyl)phenyl]-3,6-dihydro-2H-1,3,4-oxadiazin-2-one]
14	CCCC(CO)Nc1ccc(C2=NNC(=O)OC2)cc1C(F)(F)F (centres unmarked) [Example 285, 5-{4-[(1-hydroxypentan-2-yl)amino]-3-(trifluoromethyl)phenyl}-3,6-dihydro-2H-1,3,4-oxadiazin-2-one]
> 100	O=C1NN=C(c2ccc(NCc3cccnn3)c(C(F)(F)F)c2)CO1 [Example 308, 5-[4-{[(pyridazin-3-yl)methyl]amino}-3-(trifluoromethyl)phenyl]-3,6-dihydro-2H-1,3,4-oxadiazin-2-one]
